Assay results: ChEMBL document CHEMBL1201862, “PubChem BioAssay data set” (2004)
Active and inactive are the calls of the source. For most assays here, no stated cut-off is given here; in the data, actives have a measured EC50 and inactives only a lower limit.

Legend:
[1] = tested on: INS1; assay: INS-1E survival protection against cytokine death – cell-based, luminescence, retest, dose response (AID 449756); type: functional; conditions: Rattus norvegicus;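 further: cell death triggered by IL-1 beta plus TNF-alpha plus IFN-gamma mixture; protective hits raise ATP signal compared with cytokine alone wells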
[2] = Trypanosoma cruzi growth suppression in host cells – NIH3T3 host cells, beta-gal luminescence, confirmation (AID 2044); type: functional, cell-based;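 further: intracellular parasites grown in NIH/3T3 mouse fibroblasts as host cells; luminescent beta-galactosidase reporter signal from transgenic T. cruzi replicating inside host cells; inhibitors lower the luminescence signal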
[3] = NIH3T3 cell viability loss – ATP luminescence, mouse fibroblasts, counter-screen, dose response (AID 2010); type: functional, cell-based;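 further: cells exposed to compound for about 90 hours before reading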
[4] = biological target: Cytochrome P450 2C9 (Homo sapiens, UniProt P11712)
Chain of Cytochrome P450 2C9 (P11712 whole entry): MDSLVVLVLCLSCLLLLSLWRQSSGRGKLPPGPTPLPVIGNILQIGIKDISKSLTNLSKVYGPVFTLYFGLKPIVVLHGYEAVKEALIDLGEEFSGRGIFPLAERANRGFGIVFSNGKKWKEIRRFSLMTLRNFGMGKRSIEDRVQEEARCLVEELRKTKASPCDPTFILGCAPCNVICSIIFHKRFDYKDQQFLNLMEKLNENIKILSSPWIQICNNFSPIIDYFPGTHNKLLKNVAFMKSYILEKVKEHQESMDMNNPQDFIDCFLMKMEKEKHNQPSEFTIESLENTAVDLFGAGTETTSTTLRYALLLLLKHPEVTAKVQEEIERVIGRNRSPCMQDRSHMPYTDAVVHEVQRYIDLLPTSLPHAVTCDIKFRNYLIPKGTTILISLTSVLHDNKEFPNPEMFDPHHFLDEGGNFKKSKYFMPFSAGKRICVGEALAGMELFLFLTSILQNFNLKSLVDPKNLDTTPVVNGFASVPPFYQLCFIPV

[5] = biological target: T1, Heat shock factor protein 1 (Mus musculus, UniProt P38532); assay: decrease of HSF1-responsive luciferase luminescence – cell-based, NIH3T3, dose retest, confirmation (AID 2382); type: functional;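 further: NIH3T3 fibroblasts with HSF1-driven luciferase reporter stressed by proteasome inhibitor MG132; luminescence from HSF1-driven luciferase expression after 8 hours of MG132 stress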
T1 sequence (P38532 whole entry): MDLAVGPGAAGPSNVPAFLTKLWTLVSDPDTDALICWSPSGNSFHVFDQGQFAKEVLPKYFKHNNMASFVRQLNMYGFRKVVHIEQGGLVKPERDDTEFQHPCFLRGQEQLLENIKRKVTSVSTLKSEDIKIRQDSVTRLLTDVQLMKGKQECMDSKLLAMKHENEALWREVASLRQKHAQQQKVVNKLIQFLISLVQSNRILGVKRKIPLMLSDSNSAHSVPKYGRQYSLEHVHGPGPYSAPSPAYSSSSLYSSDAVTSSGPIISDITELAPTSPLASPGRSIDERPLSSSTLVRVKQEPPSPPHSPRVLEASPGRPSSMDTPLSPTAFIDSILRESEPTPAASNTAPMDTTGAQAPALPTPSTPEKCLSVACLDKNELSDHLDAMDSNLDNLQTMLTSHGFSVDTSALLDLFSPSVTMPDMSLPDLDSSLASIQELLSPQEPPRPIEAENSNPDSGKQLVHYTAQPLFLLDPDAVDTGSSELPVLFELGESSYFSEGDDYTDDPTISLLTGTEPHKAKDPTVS

[6] = biological target: T2, Rac GTPase-activating protein 1 (Homo sapiens, UniProt Q9H0H5); assay: blockers of MgcRacGAP-driven Rac1 GTP hydrolysis – biochemical, ADP Hunter fluorescence, primary and confirmatory, confirmation (AID 624330); type: functional
T2 sequence (Q9H0H5 whole entry): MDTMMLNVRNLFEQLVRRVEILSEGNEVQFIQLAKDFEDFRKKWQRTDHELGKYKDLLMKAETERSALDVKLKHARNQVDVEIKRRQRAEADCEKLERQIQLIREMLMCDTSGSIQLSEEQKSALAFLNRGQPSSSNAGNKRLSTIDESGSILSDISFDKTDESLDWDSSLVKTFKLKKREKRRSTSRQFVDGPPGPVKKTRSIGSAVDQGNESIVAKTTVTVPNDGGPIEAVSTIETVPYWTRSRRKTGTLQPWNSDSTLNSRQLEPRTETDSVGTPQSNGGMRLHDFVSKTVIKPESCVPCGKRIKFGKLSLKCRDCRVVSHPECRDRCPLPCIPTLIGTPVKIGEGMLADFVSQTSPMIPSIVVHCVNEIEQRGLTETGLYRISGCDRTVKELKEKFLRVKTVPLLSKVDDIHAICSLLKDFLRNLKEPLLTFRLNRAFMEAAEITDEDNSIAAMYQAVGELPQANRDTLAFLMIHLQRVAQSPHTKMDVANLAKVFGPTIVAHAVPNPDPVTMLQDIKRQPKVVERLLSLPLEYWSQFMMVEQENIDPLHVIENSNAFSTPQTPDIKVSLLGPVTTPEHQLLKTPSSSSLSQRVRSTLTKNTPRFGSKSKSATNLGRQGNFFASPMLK

[7] = viability of uninfected HEp-2 cells – cell-based, HTS, cytotoxicity control for RSV inhibitor project, dose response (AID 2410); type: functional; conditions: human respiratory syncytial virus
[8] = tested on: Streptococcus; assay: GAS UMAA2166 growth inhibition – luminescence, BacTiterGlo, counter-screen for streptokinase expression inhibitor project, dose response (AID 1915); type: functional, organism-based;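 further: potency for reduction of bacterial viability or growth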
[9] = tested on: Streptococcus sp. 'group A'; assay: Streptococcus pyogenes SK(-)GAS viability under kanamycin – luminescence, BacTiterGlo, confirmation, counter-screen for streptokinase expression inhibitor project, dose response (AID 1900); type: functional, organism-based

O=C(NCC#CCSc1nnc(-c2cccc3ccccc23)o1)c1cccs1
AC50 [1]: 2.51 µM (active)

CC#CC[N+](C)(C)CCCCCCCC
AC50 [1]: 28.7 µM (active)

O=[N+]([O-])c1cc(-c2nnc(Nc3ccccc3)c3ccccc23)ccc1N1CCOCC1
EC50 [2]: 1.28 µM (active)
EC50 [3]: > 30 µM (not active)

Cc1ccc(/C=C/C(=O)NC(=S)Nc2ccccc2C(=O)NC2CCCCC2)cc1
AC50 [4]: 7.08 µM (inconclusive)

CSCCC(NS(=O)(=O)c1cccs1)C(=O)NCc1ccccc1 (configuration not stated)
EC50 [5]: > 195 µM (not active)

COc1ccc(NCc2ccsc2)cc1
IC50 [6]: 29.6 µM (active)

COc1ccc(CNC(C)CCc2ccccc2)cc1 (configuration not stated)
EC50 [5]: > 195 µM (not active)

Cc1ccc(C)c(NS(=O)(=O)c2cc(C(=O)N3CCc4ccccc4C3)ccc2Cl)c1
EC50 [2]: 2.06 µM (active)
EC50 [3]: > 60 µM (not active)

c1csc(CNc2nc(-c3ccc4c(c3)OCO4)nc3ccccc23)c1
AC50 [4]: 1.58 µM (inconclusive)

N#CCCn1c(=O)c(-c2ccccc2)nc2cnc(Oc3cccc(Cl)c3)nc21
AC50 [4]: 7.94 µM (inconclusive)

CCOc1ccc(CNC(=O)CCS(=O)(=O)c2ccc3c(c2)oc(=O)n3C)cc1
EC50 [5]: > 195 µM (not active)

Cc1ccc(CNc2ccc(N3CCOCC3)cc2)s1
IC50 [6]: 20.1 µM (active)

Cc1ccc(CN2CCN(Cc3cc4ccccc4o3)CC2CCO)cc1 (configuration not stated)
EC50 [5]: > 195 µM (not active)

CCN(CC)CCNCC(=O)Nc1ccc(Oc2ccccc2)cc1
IC50 [6]: 119 µM (active)

COc1ccc(C(=O)CSc2nc(C)cc(O)n2)cc1C
EC50 [5]: > 195 µM (not active)

c1ccc(COc2ccc(OCCN3CCCC3)cc2)cc1
EC50 [2]: 1.18 µM (active)
EC50 [3]: 13.1 µM (active)

COc1cc(CNc2ccc(N3CCOCC3)cc2)cc(Br)c1OC
IC50 [6]: 15.4 µM (active)

Cc1nc2ccc(NC(=O)N3CCSCC3)cc2s1
EC50 [5]: > 195 µM (not active)

NCCSCc1ccccc1Cl
AC50 [4]: 3.98 µM (inconclusive)

CCN(CC)c1ccc(NC(=O)CSC(=O)c2ccccc2)cc1
IC50 [6]: 83.9 µM (active)

Cc1cccc(N(C(=O)c2ccco2)C(C(=O)NC2CCCC2)c2cccnc2)c1C (configuration not stated)
EC50 [5]: > 195 µM (not active)

Cc1nn2c(SCC(=O)c3cccs3)cc(C(C)(C)C)nc2c1-c1ccccc1
EC50 [2]: 2.66 µM (active)
EC50 [3]: > 60 µM (not active)

Cc1cc2cc(CCNC(=O)C(=O)c3c[nH]c4ccccc34)c(O)nc2cc1C
EC50 [5]: 21.1 µM (active)

Cc1ccccc1C1c2[nH]c3ccccc3c2CCN1Cc1cccn1-c1ncccn1 (configuration not stated)
EC50 [2]: 1.26 µM (active)
EC50 [3]: > 60 µM (not active)

COc1ccc(Oc2ncc3nc(-c4ccc(Cl)cc4)c(=O)n(CCC#N)c3n2)cc1
AC50 [4]: 7.94 µM (inconclusive)

CC(C)CC(C(=O)Nc1cccc(O)c1)N1C(=O)c2ccccc2C1=O (configuration not stated)
EC50 [5]: > 195 µM (not active)

C=CCN(CC=C)C(=S)NC(=O)c1ccc(OC)c(Br)c1
AC50 [4]: 15.8 µM (inconclusive)

O=S(=O)(N1CCCCC1)N1CCN(CC(O)COc2ccc3cc(Br)ccc3c2)CC1 (configuration not stated)
EC50 [2]: 2.31 µM (active)
EC50 [3]: > 60 µM (not active)

O=C(NNC(=O)c1ccc2c(c1)C(=O)N(C1CCCCC1)C2=O)c1cccnc1
AC50 [4]: 15.8 µM (inconclusive)

Cc1nc2c(ccc3nc(NC(=O)C(c4ccccc4)c4ccccc4)sc32)s1
CC50 [7]: 5.99 µM (active)

CCOc1ccc(-c2cn(S(=O)(=O)c3cccc4nsnc34)nc2N)cc1
CC50 [7]: > 50 µM (active)

COC(=O)c1ccc(N=NNc2ccc(C(=O)OC)cc2)cc1
EC50 [5]: > 195 µM (not active)

COc1ccc(CN2CCN(C(C)C(=O)N(C)Cc3cccc(F)c3)CC2)cc1OC (configuration not stated)
IC50 [6]: 76.2 µM (active)

COc1ccc(NC(=O)C(C)N2CCN(C)CC2)cc1 (configuration not stated)
IC50 [6]: 78.1 µM (active)

O=C(O)CSc1cc(-c2ccccc2)nc2ccccc12
AC50 [4]: 3.16 µM (inconclusive)

O=C(CN1CCCCCC1)NCC1CCCO1 (configuration not stated)
IC50 [6]: 117 µM (active)

COc1ccc(OCCOCCN2CCc3ccccc3C2)cc1
EC50 [2]: 0.141 µM (active)
EC50 [3]: > 60 µM (not active)

COC(=O)c1cc(COc2ccc3oc(C)c(C(=O)OC(C)C)c3c2)c(C)o1
EC50 [5]: > 195 µM (not active)

N#C/C(=C\c1c(Cl)cccc1Cl)c1nn(-c2ccccc2)c(-n2cccc2)c1C#N
EC50 [2]: 1.29 µM (active)
EC50 [3]: > 60 µM (not active)

O=S(=O)(N1CCCCC1)n1nnc2ccccc21
EC50 [5]: > 195 µM (not active)

CCOC(=O)c1cn2nc(-c3ccc(OC)cc3)cc2nc1C1CCN(C(=O)OC(C)(C)C)CC1
EC50 [2]: 1.55 µM (active)
EC50 [3]: > 60 µM (not active)

Cc1cnc(C(=O)Nc2cccc3cccnc23)cn1
EC50 [2]: 2.22 µM (active)

CCn1cc(C(=O)NCCCN2CC(C)CC(C)C2)c(=O)c2cc(S(=O)(=O)N(C)C)ccc21 (configuration not stated)
EC50 [5]: > 195 µM (not active)

c1ccc(Cn2nnnc2C(c2cccnc2)N2CCN(c3ccccc3)CC2)cc1 (configuration not stated)
EC50 [2]: 0.534 µM (active)
EC50 [3]: > 60 µM (not active)

CC1CC(C)CN(C2CCN(Cc3cccnc3)CC2)C1 (configuration not stated)
IC50 [6]: 49.6 µM (active)

CC(=O)OC1(c2ccccc2)CCN(C)C2CCCCC21 (configuration not stated)
EC50 [5]: > 195 µM (not active)

CCC(=O)c1ccccc1OCCN1CCN(CC)CC1
IC50 [6]: 88.2 µM (active)

COCCSc1ccccc1C(=O)N1CCCC(C)C1 (configuration not stated)
EC50 [8]: > 150 µM (not active)
EC50 [9]: > 150 µM (not active)

CCOC(=O)c1[nH]c2cc(OC)c(OC)cc2c1N
IC50 [6]: 35 µM (active)

CC(C)CCNc1nc(N2CCCC2)c2c(c1C#N)CCN(C)C2
EC50 [2]: 0.1 µM (active)
EC50 [3]: > 60 µM (not active)

COc1ccc(C2=NN(C(=O)c3cccs3)C(c3ccccc3O)C2)cc1 (configuration not stated)
EC50 [2]: 3.01 µM (active)
EC50 [3]: > 60 µM (not active)

Cc1cc(C)c(OCCCCN(C)C)c(Br)c1
EC50 [2]: 0.46 µM (active)
EC50 [3]: > 60 µM (inconclusive)

O=[N+]([O-])c1ccc2c(c1)Cc1cc(O)ccc1-2
IC50 [6]: 16.7 µM (active)

O=C(CSc1nnc(C2CC2)n1C1CC1)N1CCN(c2ccc(O)cc2)CC1
IC50 [6]: 30.2 µM (active)

CCN(CC)S(=O)(=O)c1cccc(C(=O)N/N=C/c2ccc(OC)c(O)c2)c1
IC50 [6]: 76.7 µM (active)

C/C(=N\OCC(=O)Nn1c(=O)[nH]c2ccccc2c1=O)c1cccs1
EC50 [5]: > 195 µM (not active)

CCn1nc(C)c(/C=N/NC(=O)c2c[nH]c3ccccc23)c1C
EC50 [5]: > 195 µM (not active)

O=C1OC2(CCCCC2)OC(O)=C1/C=N/c1nccs1
EC50 [5]: > 195 µM (not active)
